Experiment: BIC plasma pharmacokinetics, Phase 1 open-label single-dose DDI study GS-US-380-3909 (B/F/TAF 50/200/25 mg with antacid or mineral supplements)
Format: in vivo, human
Settings: for Cmax, reference GLSM: BIC alone (N = 14); for half-life / Vd/F / AUC(0-inf): both sexes, human, plasma, oral; for half-life: BIC T1/2, median (Q1, Q3); for Vd/F: BIC VZ/F; for Vd/F / AUC(0-inf): mean (%CV); for AUC(0-inf): BIC plasma AUCinf
Procedure: Eligible participants were adult (18–45 years) males and non-pregnant, non-lactating females in good general health at a screening evaluation performed no more than 28 days before the first study dose. […] Full eligibility criteria are available in the supplement. All prescription and over-the-counter medications except vitamins, acetaminophen, ibuprofen, and hormonal contraceptives were not permitted during study participation. Three dosing cohorts were evaluated (Table 1). […] Vitamins and/or other supplements were not permitted on the dosing day. […] Participants received maximum-strength antacid oral suspension (four teaspoons; 20 mL; 1,600 mg aluminum hydroxide/1,600 mg magnesium hydroxide/160 mg simethicone; referred to as “aluminum/magnesium-containing antacid”) on Day 9, calcium carbonate (1,200 mg; 2 × 600 mg tablets) on Day 17, and ferrous fumarate (1 × 324 mg tablet) on Day 25. […] All samples were analyzed within the timeframe determined using frozen stability storage data. […] PK parameters were estimated using Phoenix WinNonlin software (Version 6.4, Pharsight Corporation, Princeton, NJ, USA) using standard noncompartmental analysis methods. […] The estimated 90% CIs were compared to a prespecified lack of DDI boundary of 70%–143%. […] A minimum of 12 evaluable participants in each cohort was calculated to be needed to reject the null hypothesis (i.e., the 90% CI for the GLSM ratio for each PK parameter was outside the prespecified boundary) with ≥90% power.

[1] = Cohort 1 fasted, B/F/TAF + calcium carbonate simultaneous, N = 14
[2] = Cohort 1 fasted, B/F/TAF alone, N = 14
[3] = Cohort 1 fasted, simultaneous aluminum/magnesium-containing antacid
[4] = Cohort 1 fasted, simultaneous calcium carbonate
[5] = Cohort 1 fasted, simultaneous ferrous fumarate
[6] = Cohort 2 fasted, B/F/TAF 2 hours after aluminum/magnesium-containing antacid
[7] = Cohort 2 fasted, B/F/TAF 2 hours after aluminum/magnesium-containing antacid, N = 13
[8] = Cohort 2 fasted, B/F/TAF 2 hours before aluminum/magnesium-containing antacid, N = 13
[9] = Cohort 2 fasted, B/F/TAF alone, N = 14
[10] = Cohort 3, B/F/TAF alone (fasted), N = 14
[11] = Cohort 3 fed, B/F/TAF + aluminum/magnesium-containing antacid simultaneous, N = 14
[12] = Cohort 3 fed, simultaneous aluminum/magnesium-containing antacid
[13] = Cohort 1 fasted, B/F/TAF + aluminum/magnesium-containing antacid simultaneous, N = 14
[14] = Cohort 1 fasted, B/F/TAF + ferrous fumarate simultaneous, N = 14
[15] = Cohort 3 fed, B/F/TAF + ferrous fumarate simultaneous, N = 14

SMILES: O=C(NCc1c(F)cc(F)cc1F)c1cn2c(c(O)c1=O)C(=O)N1[C@H]3CC[C@H](C3)O[C@@H]1C2 [BIC, bictegravir]
- BIC T1/2, median (Q1, Q3) [1]: 21.0 (17.6, 25.0) h
- BIC plasma Tmax, median (Q1, Q3) [1]: 1.8 (1.5, 4.0) h
- BIC plasma AUCinf, mean (%CV) [2]: 121.9 (24.4) µg*h/mL
- Cmax, reference GLSM (Cohort 1 fasted): 5540 ng/mL
- Delay of median Tmax compared with B/F/TAF alone [3]: 1 h
- Increase in mean BIC CL/F compared with B/F/TAF alone [3]: 404%
- Increase in mean BIC Vz/F compared with B/F/TAF alone [3]: 421%
- Reduction in BIC AUCinf compared with B/F/TAF alone [3]: 79%
- Reduction in BIC C24 compared with B/F/TAF alone [3]: 78%
- Reduction in BIC Cmax compared with B/F/TAF alone [3]: 80%
- Increase in mean BIC CL/F compared with B/F/TAF alone [4]: 56%
- Increase in mean BIC Vz/F compared with B/F/TAF alone [4]: 84%
- Reduction in BIC AUCinf compared with B/F/TAF alone [4]: 33%
- Reduction in BIC C24 compared with B/F/TAF alone [4]: 35%
- Reduction in BIC Cmax compared with B/F/TAF alone [4]: 42%
- Delay of median Tmax compared with B/F/TAF alone [5]: 1.5 h
- Increase in mean BIC CL/F compared with B/F/TAF alone [5]: 174%
- Increase in mean BIC Vz/F compared with B/F/TAF alone [5]: 216%
- Reduction in BIC AUCinf compared with B/F/TAF alone [5]: 63%
- Reduction in BIC C24 compared with B/F/TAF alone [5]: 63%
- Reduction in BIC Cmax compared with B/F/TAF alone [5]: 71%
- Cmax, test GLSM (Cohort 2 fasted, B/F/TAF 2 h before aluminum/magnesium-containing antacid, N = 14): 5460 ng/mL
- Decrease in BIC AUCinf compared with B/F/TAF alone [6]: 52%
- Decrease in BIC C24 compared with B/F/TAF alone [6]: 53%
- Decrease in BIC Cmax compared with B/F/TAF alone [6]: 59%
- Delay of median Tmax compared with B/F/TAF alone [6]: 1 h
- Increase in mean BIC CL/F compared with B/F/TAF alone [6]: 124%
- Increase in mean BIC VZ/F compared with B/F/TAF alone [6]: 180%
- BIC plasma Tmax, median (Q1, Q3) [7]: 2.0 (1.5, 3.0) h
- Delay of median Tmax compared with B/F/TAF alone (Cohort 2 fasted, B/F/TAF 2 hours before aluminum/magnesium-containing antacid): 1.5 h
- BIC plasma Tmax, median (Q1, Q3) [8]: 1.5 (1.5, 2.0) h
- BIC T1/2, median (Q1, Q3) [9]: 20.8 (16.5, 22.8) h
- BIC plasma Tmax, median (Q1, Q3) [9]: 3.0 (2.0, 3.0) h
- BIC T1/2, median (Q1, Q3) [10]: 18.0 (17.5, 19.9) h
- BIC plasma Tmax, median (Q1, Q3) [10]: 1.5 (1.5, 2.0) h
- Cmax, reference GLSM (Cohort 3, fasted): 4540 ng/mL
- BIC T1/2, median (Q1, Q3) [11]: 17.9 (16.9, 20.2) h
- Decrease in BIC AUCinf compared with B/F/TAF alone under fasted conditions [12]: 47%
- Decrease in BIC C24 compared with B/F/TAF alone under fasted conditions [12]: 44%
- Decrease in BIC Cmax compared with B/F/TAF alone under fasted conditions [12]: 49%
- Delay of median Tmax compared with B/F/TAF alone under fasted conditions [12]: 2 h
- Increase in mean BIC CL/F compared with B/F/TAF alone under fasted conditions [12]: 89%
- Increase in mean BIC Vz/F compared with B/F/TAF alone under fasted conditions [12]: 89%
- Delay of median Tmax compared with B/F/TAF alone under fasted conditions (Cohort 3 fed, simultaneous calcium carbonate): 2 h
- Delay of median Tmax compared with B/F/TAF alone under fasted conditions (Cohort 3 fed, simultaneous ferrous fumarate): 2.5 h
- half-life [13]: 20.2 h
- half-life [14]: 21.9 h
- half-life [2]: 18.9 h
- half-life [7]: 24.2 h
- half-life [8]: 21.8 h
- half-life (Cohort 3 fed, B/F/TAF + calcium carbonate simultaneous, N = 14): 18.9 h
- half-life [15]: 19.3 h
- Vd/F [13]: 61.4 L
- Vd/F [1]: 21.7 L
- Vd/F [14]: 37.3 L
- Vd/F [2]: 11.8 L
- Vd/F [7]: 31.2 L
- Vd/F [8]: 14.4 L
- Vd/F [9]: 11.2 L
- Vd/F [11]: 29.1 L
- Vd/F [15]: 19.3 L
- AUC(0-inf) [13]: 28000 ng·h/mL
- AUC(0-inf) [1]: 85000 ng·h/mL
- AUC(0-inf) [14]: 46100 ng·h/mL
- AUC(0-inf) [7]: 67700 ng·h/mL
- AUC(0-inf) [8]: 116000 ng·h/mL
- AUC(0-inf) [9]: 133000 ng·h/mL

— article PMC12777568 (Antimicrobial Agents and Chemotherapy, 2025)
